Like-named read-outs stand apart in the source and are kept apart here.
Legend:
[1] = cited from earlier work
[2] = cited from earlier work; remark: listed apart in the source
[3] = cited from earlier work; for t1/2: carrier drug, as repeated in the examples
[4] = Hydrolysis of ethinyl estradiol (EE) from conjugate of Example 16; format: physicochemical; conditions: for Ethinyl Estradiol Released (%): 9:4 ethanol/0.05 M phosphate buffer pH 7.4, 37° C.
Protocol: Estradiol conjugate (33.5 mg, 0.039 mmol), prepared from Conjugate 1 as described in Example 16, was dissolved in 58 mL of a 9:4 ethanol/0.05 M aqueous phosphate buffer (pH 7.4) mixture, and the solution was shaken in a 37° C. incubator for 9 days. Six 8 mL aliquots were collected at 1-, 2-, 3-, 5-, 7-, and 9-day intervals. Estradiol release was quantified by adding 33 μL of a 0.09 M solution of butylated hydroxytoluene (BHT) in deuterochloroform as an internal standard, then comparing integrals of 1H NMR signals corresponding to the steroid and the internal standard.

[5] = cited from earlier work; for short half life from triacylglycerols (TAG) / following half life from triacylglycerols (TAG): bi-exponential pattern; for short half life from triacylglycerols (TAG): first phase; for following half life from triacylglycerols (TAG): second phase
[6] = Calculation of pharmacokinetic profile of orally delivered 3 1/2 day or 7 day pill; conditions: k 0.42
From the text: Since the release of EE is from a non-constant activity source, i.e., the concentration of the conjugate is continuously decreasing, the release of EE from the conjugate will obey a first order release and thus be proportional to the concentration of conjugate at any time t. These equations have been solved and the final equation describing the release of the EE is given by the equation Mt/M0=1−1/exp(kt), where Mt is the amount of EE released from the conjugate, M0 is the total amount of EE, Mt/M0 is the percent EE released from the conjugate, k is a proportionality constant and t is the time. The constant k was calculated from the data shown in example 17 to be 0.42. […] The pharmacokinetic profiles obtained using pills containing 150 (7 day pill) and 110 (3½ day pill) microgram equivalents of EE are shown in FIG. 1A and FIG. 1B.
As was shown in Example 18, the release from the EE conjugate is governed by the equation Mt/M0=1−1/exp(kt). The value of k was 0.42 as determined from the data of example 17. As discussed in the detailed description of illustrative embodiments, the release can be controlled by many different factors. To obtain half the release rate of EE as compared with that of conjugate of example 17, a value of k=0.22 was used. Using k=0.22 and the pharmacokinetic parameters shown in Example 18, the graphs shown in FIG. 2A and FIG. 2B were obtained. […]

[7] = Hydrolysis of ethinyl estradiol (EE) from conjugate 1; format: physicochemical; conditions: for Ethinyl Estradiol Released (%): 2:1 ethanol/0.05 M phosphate buffer pH 7.4, 37° C.
Protocol: Estradiol conjugate 1 (23.0 mg, 0.027 mmol) was dissolved in 48 mL of a 2:1 ethanol/0.05 M aqueous phosphate buffer (pH 7.4) mixture, and the solution was shaken in a 37° C. incubator for 6 days. Estradiol release was determined by integration of ^1H NMR signals obtained from three 8.5 mL aliquots, which were collected at 2-, 3-, and 6-day intervals.

[8] = cited from earlier work; remark: listed apart in the source
[9] = Table 1, alcohol moiety, 60% acetone, temperature 25
[10] = Table 1, alcohol moiety, 60% acetone, temperature 1
[11] = Table 2, acid moiety, 70% acetone, temperature 24.7
[12] = Table 2, acid moiety, water, temperature 24.7
[13] = Table 1, alcohol moiety, 70% acetone, temperature 24.7
[14] = The Pharmacological Basis of Therapeutics 10th ed., Physicians Desk Reference 58th Ed.
[15] = carotenoids, J. of Nutrition 2001, 131, 2096
[16] = Physicians Desk Reference p. 3372, 57 ed., 2003

CC(=O)OCc1ccc([N+](=O)[O-])cc1
kOH [1, 9]: 0.269 M⁻¹ s⁻¹

CC(=O)Oc1ccc([N+](=O)[O-])cc1
kOH [1, 10]: 2.2 M⁻¹ s⁻¹

CC(=O)Oc1cccc(C)c1
kOH [1, 10]: 0.09 M⁻¹ s⁻¹

CC(C)=CCC\C(C)=C/C=C/C(C)=C/C=C/C(C)=C/C=C/C=C(C)/C=C/C=C(C)/C=C/C=C(\C)CCC=C(C)C [5-Z lycopene]
half life ([2]; in vivo): 220 h

CCOC(=O)C(CC)CC [(C2H5)2CHCOOC2H5]
kOH [1, 11]: 0.000083 M⁻¹ s⁻¹

CCOC(=O)C(C)(C)C [(CH3)3CCOOC2H5]
kOH [1, 11]: 0.00022 M⁻¹ s⁻¹

CCOC(=O)C[N+](C)(C)C [(CH3)3N^+CH2COOC2H5]
kOH [1, 12]: 98.0 M⁻¹ s⁻¹

CC(=O)OC[C@H]1O[C@@H]([S-])[C@H](OC(C)=O)[C@@H](OC(C)=O)[C@@H]1OC(C)=O.CCP(CC)CC.[Au+] [Auranofin]
half life ([3]; in vivo): 408 to 600 h

CCCOC(C)=O [CH3COO(CH2)2CH3]
kOH [1, 13]: 0.027 M⁻¹ s⁻¹

CCOC(C)=O [CH3COOC2H5]
kOH [1, 13]: 0.047 M⁻¹ s⁻¹ | kOH [1, 11]: 0.047 M⁻¹ s⁻¹

CC(=O)Oc1ccccc1 [CH3COOC6H5]
kOH [1, 9]: 0.537 M⁻¹ s⁻¹

CC(=O)OC(C)(C)C [CH3COOC(CH3)3]
kOH [1, 13]: 0.00027 M⁻¹ s⁻¹

COC(C)=O [CH3COOCH3]
kOH [1, 13]: 0.108 M⁻¹ s⁻¹

CC(=O)OC(C)C [CH3COOCH(CH3)2]
kOH [1, 13]: 0.007 M⁻¹ s⁻¹

CCOC(=O)CSC [CH3SCH2COOC2H5]
kOH [1, 12]: 0.92 M⁻¹ s⁻¹

CCOC(=O)C[S+](C)[O-] (stereo not drawn) [CH3SOCH2COOC2H5]
kOH [1, 12]: 4.20 M⁻¹ s⁻¹

CCOC(=O)CCl [ClCH2COOC2H5]
kOH ([1]; Table 2, acid moiety, Water, μ = 0.2, temperature 24.7): 33.2 M⁻¹ s⁻¹

C#C[C@]1(O)CC[C@H]2[C@@H]3CCc4cc(OC(=O)CCC(=O)OC(c5cc(C(F)(F)F)nc6c(C(F)(F)F)cccc56)C5CCCCN5)ccc4[C@H]3CC[C@@]21C (stereo partly drawn) [Conjugate of Example 16]
rate of hydrolysis compared with Conjugate 1 [4]: slower than that of Conjugate 1 | Ethinyl Estradiol Released (%) ([4]; Day 1): 30% | Ethinyl Estradiol Released (%) ([4]; Day 2): 50% | Ethinyl Estradiol Released (%) ([4]; Day 3): 63% | Ethinyl Estradiol Released (%) ([4]; Day 5): 77% | Ethinyl Estradiol Released (%) ([4]; Day 7): 88% | Ethinyl Estradiol Released (%) ([4]; Day 9): 98%

CC/C=C\C/C=C\C/C=C\C/C=C\C/C=C\C/C=C\CCC(=O)O [DHA, docosahexaenoic acid]
short half life from triacylglycerols (TAG) [5]: less than a day | following half life from triacylglycerols (TAG) [5]: several days

CC(C)=CCC/C(C)=C/C=C/C(C)=C/C=C/C(C)=C/C=C/C=C(C)/C=C/C=C(C)/C=C/C=C(\C)CCC=C(C)C [E lycopene]
half life ([2]; in vivo): 120 h

CC/C=C\C/C=C\C/C=C\C/C=C\C/C=C\CCCC(=O)O [EPA, eicosapentaenoic acid]
mean half life in cholesteryl esters (CE) ([5]; Br. J. Nutr. 1999): 78.5 h | short half life from triacylglycerols (TAG) [5]: less than a day | following half life from triacylglycerols (TAG) [5]: several days

CNCCC(Oc1ccc(C(F)(F)F)cc1)c1ccccc1 (stereo not drawn) [Fluoxetine]
half life [3, 14]: 53 h | t1/2 [3]: 53 h

CCOC(=O)CN [H3N^+CH2COOC2H5]
kOH [1, 12]: 60.5 M⁻¹ s⁻¹

CCN(CCO)CCCC(C)Nc1ccnc2cc(Cl)ccc12 (stereo not drawn) [Hydroxychloroquine]
half life [3, 14]: 1220 h

OC(c1cc(C(F)(F)F)nc2c(C(F)(F)F)cccc12)C1CCCCN1 (stereo not drawn) [Mefloquine]
half life [3, 14]: 480 ± 96 h

COc1ccc2cc(CCC(C)=O)ccc2c1 [Nabumetone]
half life [3, 14]: 23 h

CNCCC=C1c2ccccc2CCc2ccccc21 [Nortriptyline]
half life [3, 14]: 31 h

CCC1(c2ccccc2)C(=O)NC(=O)NC1=O [Phenobarbital]
half life [3, 14]: 99 h

O=c1[nH]c2ccccc2n1C1CCN(CCCC(c2ccc(F)cc2)c2ccc(F)cc2)CC1 [Pimozide]
half life [3, 14]: 111 h

CNCCCC1c2ccccc2C=Cc2ccccc21 [Protriptyline]
half life [3, 14]: 78 h | t1/2 [3]: 76 h

CO[C@H]1C[C@@H]2CC[C@@H](C)[C@@](O)(O2)C(=O)C(=O)N2CCCC[C@H]2C(=O)O[C@H]([C@H](C)C[C@@H]2CC[C@@H](O)[C@H](OC)C2)CC(=O)[C@H](C)/C=C(\C)[C@@H](O)[C@@H](OC)C(=O)[C@H](C)C[C@H](C)/C=C/C=C/C=C/1C [Sirolimus]
half life [3, 14]: 62 h | t1/2 [3]: 62 h

CN(C)CCOc1ccc(/C(=C(/CCCl)c2ccccc2)c2ccccc2)cc1 [Toremifene]
half life [3, 14]: 148 h

CC1=CCCC(C)(C)[C@H]1/C=C/C(C)=C/C=C/C(C)=C/C=C/C=C(C)/C=C/C=C(C)/C=C/C1=C(C)CCCC1(C)C [alpha carotene]
half life [2, 15]: 1080 h

CC1=C(/C=C/C(C)=C/C=C/C(C)=C/C=C/C=C(C)/C=C/C=C(C)/C=C/C2=C(C)CCCC2(C)C)C(C)(C)CCC1 [beta carotene]
half life [2, 15]: 888 h

CC1=C(/C=C/C(C)=C/C=C/C(C)=C/C=C/C=C(C)/C=C/C=C(C)/C=C/C2=C(C)C[C@@H](O)CC2(C)C)C(C)(C)CCC1 [beta cryptoxanthin]
half life [2, 15]: 936 h

C#C[C@]1(O)CC[C@H]2[C@@H]3CCc4cc(OC(=O)CCC(=O)OC(c5cc(C(F)(F)F)nc6c(C(F)(F)F)cccc56)C5CCCCN5C(=O)OC(C)(C)C)ccc4[C@H]3CC[C@@]21C (stereo partly drawn) [conjugate 1]
peak to valley ratio ([6]; 1 pill every 7 days, 150 microgram equivalents of EE): 5.1 | peak to valley ratio (Css.max to Css.min) ([6]; pill once every 3½ days, 110 microgram equivalents of EE): less than two | period over which ethinyl estradiol is released ([7]; 2:1 ethanol/phosphate buffer pH 7.4, 37° C.): over a several day period | Ethinyl Estradiol Released (%) ([7]; Day 2): 57% | Ethinyl Estradiol Released (%) ([7]; Day 3): 67% | Ethinyl Estradiol Released (%) ([7]; Day 6): 100% | proportionality constant k of first order release Mt/M0=1−1/exp(kt) ([7]; calculated from the data of example 17): 0.42

C#C[C@]1(O)CC[C@H]2[C@@H]3CCc4cc(O)ccc4[C@H]3CC[C@@]21C [ethinyl estradiol]
CL/F [8, 16]: 8.1 mL/min/kg | half life [8, 16]: 18.7 h

C#C[C@]1(O)CC[C@H]2[C@@H]3CCC4=CC(=O)CC[C@@H]4[C@H]3CC[C@@]21CC [levonorgestrel]
plasma concentrations ([8]; ovulation suppression use): about 1 microgram per ml

CCCCC/C=C\C/C=C\CCCCCCCC(=O)O [linoleic acid]
t1/2 ([5]; essential fatty acids as drug carriers): 24 h

CC1=C[C@H](O)CC(C)(C)[C@H]1/C=C/C(C)=C/C=C/C(C)=C/C=C/C=C(C)/C=C/C=C(C)/C=C/C1=C(C)C[C@@H](O)CC1(C)C [lutein]
half life [2, 15]: 1820 h

CC(C)=CCC/C(C)=C/C=C/C(C)=C/C=C/C(C)=C/C=C/C=C(C)/C=C/C=C(C)/C=C/C=C(\C)CCC=C(C)C [lycopene]
half life [2, 15]: 624 h

CCCC(=O)OCC [nC3H7COOC2H5]
kOH [1, 11]: 0.088 M⁻¹ s⁻¹

CC1=C(/C=C/C(C)=C/C=C/C(C)=C/C=C/C=C(C)/C=C/C=C(C)/C=C/C2=C(C)CC(O)CC2(C)C)C(C)(C)CC(O)C1 (stereo not drawn) [zeaxanthin]
half life [2, 15]: 912 h

Gold sodium thiomalate
half life [3, 14]: 600 h

Infliximab
half life ([3]; in vivo): 228 h

Ivermectin
half life [3, 14]: 57 h

From patent US8992977B2, “Multi-day delivery of biologically active substances” (Samos Pharmaceuticals, LLC, priority 2007, dated 2015)
